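Values below derive from 48-hour exposures of cells grown in 96-well plates, with endpoints linearly interpolated between the two concentrations bracketing the appropriate inhibition level. GI50 marks 50% less growth. TGI marks complete inhibition of growth.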
Tests used:
Assay in all cases: NCI tumour cell line growth inhibition, 48 h
[1] = test system: DU-145 prostate
[2] = test system: HCC-2998 colon
[3] = test system: NCI/ADR-RES ovarian
[4] = test system: A498 renal
[5] = test system: BT-549 breast
[6] = test system: CAKI-1 renal
[7] = test system: EKVX NSCLC
[8] = test system: HCT-116 colon
[9] = test system: HCT-15 colon
[10] = test system: HOP-62 NSCLC
[11] = test system: HS 578T breast
[12] = test system: HT29 colon
[13] = test system: IGROV1 ovarian
[14] = test system: K-562 leukemia
[15] = test system: KM12 colon
[16] = test system: LOX IMVI melanoma
[17] = test system: MCF7 breast
[18] = test system: MDA-MB-435
[19] = test system: MOLT-4 leukemia
[20] = test system: NCI-H226 lung
[21] = test system: NCI-H460 lung
[22] = test system: NCI-H522 lung
[23] = test system: OVCAR-3 ovarian
[24] = test system: OVCAR-5 ovarian
[25] = test system: OVCAR-8 ovarian
[26] = test system: SF-268 CNS
[27] = test system: SK-MEL-2 melanoma
[28] = test system: SK-MEL-28 melanoma
[29] = test system: SK-MEL-5 melanoma
[30] = test system: SK-OV-3 ovarian
[31] = test system: SN12C renal
[32] = test system: SNB-19 CNS
[33] = test system: SR leukemia
[34] = test system: SW-620 colon
[35] = test system: UACC-257 melanoma
[36] = test system: UACC-62 melanoma

SMILES: C[C@H](C(=O)N[C@@H](Cc1ccc(-c2ccccc2)cc1)C(=O)NC1CC(C)(C)NC(C)(C)C1)c1ccc(-c2ccccc2)c(F)c1
- GI50 [1]: 0.377 µM
- TGI [1]: 1.54 µM
- GI50 [2]: 0.813 µM
- TGI [2]: > 100 µM
- GI50 [3]: 1.88 µM
- TGI [3]: 4.47 µM

SMILES: CC(=O)Nc1ccc2[nH]c(C(=O)N3CC(CCl)c4c3cc(N)c3ccccc43)cc2c1 (stereo unspecified)
- TGI [4]: 0.0554 µM
- TGI [5]: 0.335 µM
- TGI [6]: < 0.01 µM
- TGI [7]: 0.0851 µM
- TGI [2]: < 0.01 µM
- TGI [8]: < 0.01 µM
- TGI [9]: 2.16 µM
- TGI [10]: < 0.0262 µM
- TGI [11]: < 0.01 µM
- TGI [12]: < 0.0309 µM
- TGI [13]: > 100 µM
- TGI [14]: > 100 µM
- TGI [15]: 3.48 µM
- TGI [16]: < 0.0255 µM
- TGI [17]: 2.01 µM
- TGI [18]: 0.0767 µM
- TGI [19]: < 0.0446 µM
- TGI [20]: < 0.0238 µM
- TGI [21]: 11.6 µM
- TGI [22]: < 0.01 µM
- TGI [3]: 0.0534 µM
- TGI [23]: 12.6 µM
- TGI [24]: 1.08 µM
- TGI [25]: < 0.027 µM
- TGI [26]: < 0.01 µM
- TGI [27]: < 0.0192 µM
- TGI [28]: 0.0761 µM
- TGI [29]: 0.0267 µM
- TGI [30]: 2.18 µM
- TGI [31]: 0.0751 µM
- TGI [32]: 0.259 µM
- TGI [33]: 0.0298 µM
- TGI [34]: > 100 µM
- TGI [35]: < 0.01 µM
- TGI [36]: < 0.0157 µM

— PubChem BioAssay (NCI)
